pKi: −log10 of the molar value. The source made the active and inactive calls. The rule behind the calls is not given here.
Legend:
[1] = test system: Rattus norvegicus; assay: The compound was evaluated in vivo for the 5-HTP accumulation at hemispheres in reserpine pretreated rats at 11 umol/kg; inactive in highest dose tested; format: functional, organism-based
[2] = test system: Rattus norvegicus; assay: The compound was evaluated in vivo for the DOPA accumulation at limbic regions; format: functional; settings: Limbic system
[3] = test system: Rattus norvegicus; assay: The compound was evaluated in vivo for the 5-HTP accumulation at limbic regions at 11 umol/kg; inactive in highest dose tested; format: functional, organism-based; settings: Limbic system
[4] = test system: Rattus norvegicus; assay: The compound was evaluated in vivo for the DOPA accumulation at hemispheres in reserpine pretreated rats at 11 umol/kg; inactive in highest dose tested; format: functional, organism-based
[5] = target: T1, D(4) dopamine receptor (Homo sapiens, UniProt P21917); assay: Tested in vitro for the inhibition of [3H]spiperone binding to Dopamine receptor D4, expressed in cloned CHO cells; format: cell-based
T1 sequence (P21917 whole entry): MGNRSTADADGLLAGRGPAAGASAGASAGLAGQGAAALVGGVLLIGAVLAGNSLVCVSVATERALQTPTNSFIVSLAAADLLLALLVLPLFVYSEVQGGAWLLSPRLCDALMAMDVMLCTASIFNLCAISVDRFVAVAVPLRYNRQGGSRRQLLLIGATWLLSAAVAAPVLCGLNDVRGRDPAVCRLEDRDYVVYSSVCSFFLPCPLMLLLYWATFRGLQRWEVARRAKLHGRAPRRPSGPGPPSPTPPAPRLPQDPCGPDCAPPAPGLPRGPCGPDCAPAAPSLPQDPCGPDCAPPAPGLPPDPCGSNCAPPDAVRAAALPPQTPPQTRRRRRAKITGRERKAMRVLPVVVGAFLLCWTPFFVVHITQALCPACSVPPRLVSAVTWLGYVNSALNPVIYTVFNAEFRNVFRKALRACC

[6] = target: T2, 5-hydroxytryptamine receptor 1A (Homo sapiens, UniProt P08908); assay: Tested in vitro for the inhibition of [3H]8-OH-DPAT binding to 5-hydroxytryptamine 1A receptor, expressed in cloned CHO cells.; format: cell-based
T2 sequence (P08908 whole entry): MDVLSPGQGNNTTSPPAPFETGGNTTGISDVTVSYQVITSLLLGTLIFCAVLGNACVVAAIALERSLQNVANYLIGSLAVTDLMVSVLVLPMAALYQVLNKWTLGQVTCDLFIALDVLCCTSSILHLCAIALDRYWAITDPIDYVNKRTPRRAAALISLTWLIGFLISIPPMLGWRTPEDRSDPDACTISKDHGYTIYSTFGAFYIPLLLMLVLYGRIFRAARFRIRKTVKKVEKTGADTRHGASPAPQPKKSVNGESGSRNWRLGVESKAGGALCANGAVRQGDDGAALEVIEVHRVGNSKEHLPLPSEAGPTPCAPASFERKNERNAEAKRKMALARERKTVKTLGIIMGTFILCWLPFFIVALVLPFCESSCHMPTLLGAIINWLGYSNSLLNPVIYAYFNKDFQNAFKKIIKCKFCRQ

[7] = test system: Rattus norvegicus; assay: The compound was evaluated in vivo for the 5-HTP accumulation at corpus striatum at 11 umol/kg; inactive in highest dose tested; format: functional, organism-based
[8] = test system: Rattus norvegicus; assay: The compound was evaluated in vivo for the DOPA accumulation at corpus striatum; format: functional
[9] = test system: Rattus norvegicus; assay: The compound was evaluated in vivo for the DOPA accumulation at limbic regions at 50 umol/kg dose; format: functional, Limbic system
[10] = target: D(2) dopamine receptor (Rattus norvegicus, UniProt P61169); assay: Tested in vitro for the inhibition of [3H]raclopride binding to Dopamine receptor D2 in rat striatum; format: tissue-based
Sequence of D(2) dopamine receptor (P61169 whole entry): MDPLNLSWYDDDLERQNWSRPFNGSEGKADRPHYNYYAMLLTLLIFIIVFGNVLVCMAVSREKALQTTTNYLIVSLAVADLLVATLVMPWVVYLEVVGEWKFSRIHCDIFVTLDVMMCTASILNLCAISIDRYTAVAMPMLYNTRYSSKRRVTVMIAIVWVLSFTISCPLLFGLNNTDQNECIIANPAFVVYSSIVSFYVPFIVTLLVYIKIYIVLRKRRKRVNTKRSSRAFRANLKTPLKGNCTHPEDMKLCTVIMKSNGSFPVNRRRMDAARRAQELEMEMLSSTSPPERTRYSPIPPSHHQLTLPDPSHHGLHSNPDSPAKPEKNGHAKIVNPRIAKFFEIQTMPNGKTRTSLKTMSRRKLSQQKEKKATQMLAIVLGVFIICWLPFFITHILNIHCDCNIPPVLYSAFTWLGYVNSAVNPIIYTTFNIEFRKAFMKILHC

[11] = test system: Rattus norvegicus; assay: The compound was evaluated in vivo for the DOPA accumulation at corpus striatum in non-pretreated rats at 50 umol/kg dose; format: functional
[12] = test system: Rattus norvegicus; assay: The compound was evaluated in vivo for the locomotor activity in non-pretreated rats at 50 uM/kg dose; format: functional
[13] = target: D(3) dopamine receptor (Homo sapiens, UniProt P35462); assay: biochemical
Sequence of D(3) dopamine receptor (P35462 whole entry): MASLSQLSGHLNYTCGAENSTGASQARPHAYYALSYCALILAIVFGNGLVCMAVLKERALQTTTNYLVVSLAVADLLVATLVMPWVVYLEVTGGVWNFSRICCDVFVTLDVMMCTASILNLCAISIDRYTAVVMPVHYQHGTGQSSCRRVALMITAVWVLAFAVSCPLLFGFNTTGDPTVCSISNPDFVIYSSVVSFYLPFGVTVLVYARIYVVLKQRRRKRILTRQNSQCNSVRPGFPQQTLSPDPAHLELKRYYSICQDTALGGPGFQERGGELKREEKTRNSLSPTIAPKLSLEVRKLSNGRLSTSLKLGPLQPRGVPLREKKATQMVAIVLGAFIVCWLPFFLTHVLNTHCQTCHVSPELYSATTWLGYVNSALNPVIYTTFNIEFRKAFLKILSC
Description: Tested in vitro for the inhibition of [3H]U-86170 binding to Dopamine receptor D3, expressed in cloned CHO cells

[14] = target: Serotonin 2 (5-HT2) receptor (Homo sapiens, UniProt P41595+P28223+P28335); assay: Tested in vitro for the inhibition of [3H]ketanserin binding to 5-hydroxytryptamine 2 receptor, expressed in cloned CHO cells.; format: cell-based
[15] = test system: Rattus norvegicus; assay: The compound was evaluated in vivo for the locomotpr activity in non-pretreated rats at 50 uM/kg dose; format: functional
[16] = test system: Rattus norvegicus; assay: The compound was evaluated in vivo for the DOPA accumulation at limbic regions at 50 umol/kg; Partial effects in the highest dose tested; format: functional, organism-based; settings: Limbic system
[17] = test system: Rattus norvegicus; assay: The compound was evaluated in vivo for the 5-HTP accumulation at hemispheres in reserpine pretreated rats; format: functional
[18] = target: T1, D(4) dopamine receptor; assay: (§1) Tested in vitro for the inhibition of [3H]spiperone binding to Dopamine receptor D4, expressed in cloned CHO cells; Inactive; format: cell-based
[19] = test system: Rattus norvegicus; assay: The compound was evaluated in vivo for the DOPA accumulation at hemispheres in reserpine pretreated rats at 50 umol/kg; inactive in the highest dose tested; format: functional, organism-based
[20] = test system: Rattus norvegicus; assay: The compound was evaluated in vivo for the 5-HTP accumulation at limbic regions; format: functional; settings: Limbic system
[21] = test system: Rattus norvegicus; assay: The compound was evaluated in vivo for the 5-HTP accumulation at corpus striatum; format: functional
[22] = test system: Rattus norvegicus; assay: The compound was evaluated in vivo for the DOPA accumulation at corpus striatum at 50 umol/kg; Partial effects in the highest dose tested; format: functional, organism-based
[23] = test system: Rattus norvegicus; assay: The compound was evaluated in vivo for the 5-HTP accumulation at hemispheres in reserpine pretreated rats at 50 umol/kg; Inactive; format: functional, organism-based
[24] = test system: Rattus norvegicus; assay: The compound was evaluated in vivo for the 5-HTP accumulation at limbic regions at 50 umol/kg; Inactive; format: functional, organism-based; settings: Limbic system
[25] = target: T3, D(4) dopamine receptor (Homo sapiens) (UniProt P21917); assay: as §1; format: cell-based
T3 sequence (whole entry): T1 sequence (P21917 whole entry)

[26] = test system: Rattus norvegicus; assay: The compound was evaluated in vivo for the 5-HTP accumulation at corpus striatum at 50 umol/kg; Inactive; format: functional, organism-based
[27] = test system: Rattus norvegicus; assay: The compound was evaluated in vivo for the DOPA accumulation at hemispheres in reserpine pretreated rats at 50 umol/kg; Inactive; format: functional, organism-based
[28] = test system: Rattus norvegicus; assay: The compound was evaluated in vivo for the 5-HTP accumulation at limbic regions at 13.5 umol/kg; inactive in highest dose tested; format: functional, organism-based; settings: Limbic system
[29] = test system: Rattus norvegicus; assay: The compound was evaluated in vivo for the DOPA accumulation at hemispheres in reserpine pretreated rats at 13.5 umol/kg; inactive in highest dose tested; format: functional, organism-based
[30] = test system: Rattus norvegicus; assay: The compound was evaluated in vivo for the 5-HTP accumulation at hemispheres in reserpine pretreated rats at 13.5 umol/kg; inactive in highest dose tested; format: functional, organism-based
[31] = test system: Rattus norvegicus; assay: The compound was evaluated in vivo for the 5-HTP accumulation at corpus striatum at 13.5 umol/kg; inactive in highest dose tested; format: functional, organism-based
[32] = test system: Rattus norvegicus; assay: The compound was evaluated in vivo for the DOPA accumulation at hemispheres in reserpine pretreated rats at 12.5 umol/kg; Inactive; format: functional, organism-based
[33] = test system: Rattus norvegicus; assay: The compound was evaluated in vivo for the DOPA accumulation at corpus striatum at 12.5 umol/kg; Partial effects in the highest dose tested; format: functional, organism-based
[34] = test system: Rattus norvegicus; assay: The compound was evaluated in vivo for the DOPA accumulation at limbic regions at 12.5 umol/kg; Inactive; format: functional, organism-based; settings: Limbic system
[35] = test system: Rattus norvegicus; assay: The compound was evaluated in vivo for the DOPA accumulation at limbic regions; partial effect at highest dose of 45 umol/kg; format: functional, organism-based; settings: Limbic system
[36] = test system: Rattus norvegicus; assay: The compound was evaluated in vivo for the DOPA accumulation at hemispheres in reserpine pretreated rats; partial effect at highest dose of 45 umol/kg; format: functional, organism-based
[37] = test system: Rattus norvegicus; assay: The compound was evaluated in vivo for the DOPA accumulation at corpus striatum; partial effect at highest dose of 45 umol/kg; format: functional, organism-based

Row | Compound | ED50 [2] [µmol/kg] | pKi [5] | pKi [6] | ED50 [8] [µmol/kg] | pKi [10] | pKi [13] | Ki [14] [nM] | ED50 [17] [µmol/kg] | ED50 [20] [µmol/kg] | ED50 [21] [µmol/kg] | other results
1 | CCCN(CCC)C1CCc2ccc(O)cc2C1 (centres undefined) | 0.027 | 6.83 | 7.33 | 0.03 | – | – | – | – | – | – | ED50 [1]: inactive; ED50 [3]: inactive; ED50 [4]: inactive; ED50 [7]: inactive
2 | CCCN(CCC)[C@@H]1CCc2c(OC)cccc2[C@@H]1C | – | – | – | – | 7.82 | – | – | – | – | – | Saline control [9]: 245%; Saline control [11]: 370%; Saline control [12]: 70%
3 | CCCN1CC[C@H]2c3c(O)cccc3CC[C@H]21 | – | < 5.39 | – | – | 6.11 | < 5.32 | 1637 | – | – | – | –
4 | CCCN(CCC)[C@@H]1CCc2c(ccc3ccoc23)[C@@H]1C | – | 7.26 | 6.92 | – | 7.34 | 7.57 | 70 | – | – | – | Saline control [9]: 121%; Saline control [15]: 107%; Saline control [11]: 161%
5 | CCCN(CCC)C1CCc2ccc3ccoc3c2C1 (centres undefined) | – | – | 8.21 | – | 7.49 | 7.79 | – | 2.26 | 3.24 | 3.18 | Activity [16]: Weak activity; Ki [18]: Not Active; Activity [19]: inactive; Activity [22]: Weak activity
6 | CCCN(CCC)C1CCc2c(ccc3ccoc23)C1 (centres undefined) | 0.74 | – | 6.68 | 0.98 | 7.74 | 7.25 | – | – | – | – | ED50 [23]: inactive; ED50 [24]: inactive; ED50 [25]: inactive; ED50 [26]: inactive; ED50 [27]: inactive
7 | CCCN(CCC)C1CCc2ccc3occc3c2C1 (centres undefined) | 4.47 | – | 8.11 | 13.1 | 7.19 | 7.35 | – | 6.08 | 4.56 | 2.12 | ED50 [25]: inactive; ED50 [27]: inactive
8 | CCCN(CCC)C1CCc2c(O)cccc2C1 (centres undefined) [5-OH-DPAT] | 0.011 | – | 6.46 | 0.009 | – | – | – | – | – | – | ED50 [28]: inactive; ED50 [29]: inactive; ED50 [30]: inactive; ED50 [31]: inactive
9 | CCCN1CC[C@H]2c3c(ccc4ccoc34)CC[C@H]21 | – | < 5.39 | 8.41 | – | 6.82 | 6.49 | 146 | 0.66 | 0.41 | 0.4 | ED50 [32]: inactive; Activity [33]: Weak activity; ED50 [34]: inactive
10 | CCCN(CCC)C1CCc2cccc(O)c2C1 (centres undefined) [8-OH-DPAT] | – | < 5.82 | – | – | – | – | – | 0.052 | 0.052 | 0.063 | Activity [35]: Weak activity; Activity [36]: Weak activity; Activity [37]: Weak activity
